Reference: patent US20240279236A1, “COMPOUNDS AND METHODS OF TREATING TUBERCULOSIS” (Fimbrion Therapeutics, Inc., priority 2021, published 2024)

System: WT Mtb Erdman strain
Assay: Microplate Alamar Blue Assay (MABA), Mtb growth inhibition
Type: cell-based, Mycobacterium tuberculosis
Conditions: Mycobacterium tuberculosis, ERDMAN, 168 h, Middlebrook 7H9 media, 7 days at 37° C. in 5% CO2

Structure (SMILES)	IC50
Cc1cc2c(NCCCc3ccccc3)nc(CS(C)(=O)=O)nc2s1 [Example 74, 6-methyl-2-((methylsulfonyl)methyl)-N-(3-phenylpropyl)thieno [2,3-d]pyrimidin-4-amine]	> 10 µM
CSCc1nc(NCCCc2ccccc2)c2cc(C)sc2n1 [Example 75, 6-methyl-2-((methylthio)methyl)-N-(3-phenylpropyl)thieno [2,3-d]pyrimidin-4-amine]	2 µM
CCSc1nc(NCCCc2ccccc2)c2cc(C)sc2n1 [Example 76, 2-(ethylthio)-6-methyl-N-(3-phenylpropyl)thieno [2,3-d]pyrimidin-4-amine]	0.092 µM
Cc1cc2c(NCCCc3ccccc3)nc(N(C)C)nc2s1 [Example 77, N2,N2,6-trimethyl-N4-(3-phenylpropyl)thieno [2,3-d]pyrimidine-2,4-diamine]	0.14 µM
Cc1cc2c(NCCCc3ccccc3)nc(-c3ccncn3)nc2s1 [Example 78, 6-methyl-N-(3-phenylpropyl)-2-(pyrimidin-4-yl)thieno[2,3-d]pyrimidin-4-amine]	0.16 µM
Cc1cc2c(NCCCc3ccc(OC(F)(F)F)cc3)nc(-c3ccncn3)nc2s1 [Example 79, 6-methyl-2-(pyrimidin-4-yl)-N-(3-(4-(trifluoromethoxy)phenyl)propyl)thieno [2,3-d]pyrimidin-4-amine]	0.48 µM
CCc1nc(NCCCNc2ccccc2)c2cc(C)sc2n1 [Example 80, N1-(2-ethyl-6-methylthieno[2,3-d]pyrimidin-4-yl)-N3-phenylpropane-1,3-diamine]	0.47 µM
COCc1nc(NCCCc2ccccc2)c2cc(C)sc2n1 [Example 81, 2-(methoxymethyl)-6-methyl-N-(3-phenylpropyl)thieno [2,3-d]pyrimidin-4-amine]	3 µM
Cc1cc2c(NCCCc3ccc(OC(F)(F)F)cc3)nc(-c3ccc(F)cc3)nc2s1 [Example 82, 2-(4-fluorophenyl)-6-methyl-N-(3-(4-(trifluoromethoxy)phenyl)propyl)thieno[2,3-d]pyrimidin-4-amine]	1.1 µM
Cc1cc2c(NCCCc3ccc(O)cc3)nc(-c3ccc(F)cc3)nc2s1 [Example 83, 4-(3-((2-(4-fluorophenyl)-6-methylthieno[2,3-d]pyrimidin-4-yl)amino)propyl) phenol]	2.5 µM
Fc1ccc(-c2nc(N[C@@H]3C[C@H]3c3ccc(F)c(F)c3)c3cc(C(F)(F)F)sc3n2)cc1 [Example 85, N-((1R,2S)-2-(3,4-difluorophenyl)cyclopropyl)-2-(4-fluorophenyl)-6-(trifluoromethyl)thieno [2,3-d]pyrimidin-4-amine]	> 6.8 µM
CCc1nc(NCCCc2ccccc2)c2cc(CC)sc2n1 [Example 86, 2,6-diethyl-N-(3-phenylpropyl)thieno [2,3-d]pyrimidin-4-amine]	> 1.2 µM
CCCCSc1nc(N[C@@H]2C[C@H]2c2ccc(F)c(F)c2)c2cc(C)sc2n1 [Example 87, 2-(butylthio)-N-((1R,2S)-2-(3,4-difluorophenyl)cyclopropyl)-6-methylthieno[2,3-d]pyrimidin-4-amine]	1.5 µM
Cc1cc2c(N[C@@H]3C[C@H]3c3ccc(F)c(F)c3)nc(-c3ccco3)nc2s1 [Example 88, N-((1R,2S)-2-(3,4-difluorophenyl)cyclopropyl)-2-(furan-2-yl)-6-methylthieno[2,3-d]pyrimidin-4-amine]	2.2 µM
Cc1cccc(-c2nc(N[C@@H]3C[C@H]3c3ccc(F)c(F)c3)c3cc(C)sc3n2)n1 [Example 89, N-((1R,2S)-2-(3,4-difluorophenyl)cyclopropyl)-6-methyl-2-(6-methylpyridin-2-yl)thieno[2,3-d]pyrimidin-4-amine]	> 10 µM
Cc1cc2c(NCCCc3ccccc3)nc(-c3ccc(Cl)cc3)nc2s1 [Example 90, 2-(4-chlorophenyl)-6-methyl-N-(3-phenylpropyl)thieno [2,3-d]pyrimidin-4-amine]	2 µM
Cc1cc2c(NCCCc3ccccc3)nc(-c3cccc(Cl)c3)nc2s1 [Example 91, 2-(3-chlorophenyl)-6-methyl-N-(3-phenylpropyl)thieno [2,3-d]pyrimidin-4-amine]	5.9 µM
Cc1cc2c(NCCCc3ccccc3)nc(-c3ccc(N(C)C)cc3)nc2s1 [Example 92, 2-(4-(dimethylamino)phenyl)-6-methyl-N-(3-phenylpropyl)thieno [2,3-d]pyrimidin-4-amine]	2.7 µM
Cc1cc2c(NCCCc3ccccc3)nc(C3CCCC3)nc2s1 [Example 94, 2-cyclopentyl-6-methyl-N-(3-phenylpropyl)thieno [2,3-d]pyrimidin-4-amine]	0.93 µM
Cc1cc2c(NCCCc3ccccc3)nc(C3CCCCC3)nc2s1 [Example 95, 2-cyclohexyl-6-methyl-N-(3- |phenylpropyl)thieno [2,3-d]pyrimidin-4-amine]	> 10 µM
Cc1cc2c(NCCCc3ccccc3)nc(C(N)=O)nc2s1 [Example 96, 6-methyl-4-((3-phenylpropyl)amino) thieno[2,3-d]pyrimidine-2-carboxamide]	0.13 µM
Cc1cc2c(NCCCc3ccccc3)nc(CC3CC3)nc2s1 [Example 97, 2-(cyclopropyLMethyl)-6-methyl-N-(3. phenylpropyl)thieno [2,3-d]pyrimidin-4-amine]	0.36 µM

Structure (SMILES)	IC50
COC(=O)c1nc(NCCCc2ccccc2)c2cc(C)sc2n1 [Example 98, methyl 6-methyl-4-((3-phenylpropyl)amino) thieno[2,3-d]pyrimidine-2-carboxylate]	> 10 µM
CCc1nc(NCCCc2ccccc2)c2cc(C(F)(F)F)sc2n1 [Example 99, 2-ethyl-N-(3-phenylpropyl)-6-(trifluoromethyl)thieno [2,3-d]pyrimidin-4-amine]	5.7 µM
Cc1cc2c(NCCCc3ccccc3)nc(SC(C)C)nc2s1 [Example 100, 2-(isopropylthio)-6-methyl-N-(3-phenylpropyl)thieno [2,3-d]pyrimidin-4-amine]	3.2 µM
Cc1cc2c(NCCCc3ccccc3)nc(-c3ccsc3)nc2s1 [Example 101, 6-methyl-N-(3-phenylpropyl)-2-(thiophen-3-yl)thieno[2,3-d]pyrimidin-4-amine]	0.49 µM
Cc1cc2c(NCCCc3ccccc3)nc(-c3ccoc3)nc2s1 [Example 102, 2-(furan-3-yl)-6-methyl-N-(3-phenylpropyl)thieno [2,3-d]pyrimidin-4-amine]	0.027 µM
COc1ccc(CCCNc2nc(SC)nc3sc(C)cc23)cc1 [Example 103, N-(3-(4-methoxyphenyl)propyl)-6-methyl-2-(methylthio)thieno[2,3-d]pyrimidin-4-amine]	0.022 µM
Cc1cc2c(NCCCc3ccccc3)nc(-c3cccnn3)nc2s1 [Example 104, 6-methyl-N-(3-phenylpropyl)-2-(pyridazin-3-yl)thieno[2,3-d]pyrimidin-4-amine]	2 µM
Cc1cc2c(NCCCc3ccccc3)nc(-c3cnccn3)nc2s1 [Example 105, 6-methyl-N-(3-phenylpropyl)-2-(pyrazin-2-yl)thieno[2,3-d]pyrimidin-4-amine]	2 µM
Cc1cc2c(NCCCc3ccccc3)nc(C3CCC3)nc2s1 [Example 106, 2-cyclobutyl-6-methyl-N-(3-phenylpropyl)thieno [2,3-d]pyrimidin-4-amine]	0.49 µM
Cc1cc2c(N[C@@H]3C[C@H]3c3ccc(F)c(F)c3)nc(C(N)=O)nc2s1 [Example 107, 4-(((1R,2S)-2-(3,4-difluorophenyl)cyclopropyl)amino)-6-methylthieno[2,3-d]pyrimidine-2-carboxamide]	> 6.4 µM
Cc1cc2c(NCCCc3ccccc3)nc(CN3CCCC3)nc2s1 [Example 108, 6-methyl-N-(3-phenylpropyl)-2-(pyrrolidin-1-yLM ethyl)thieno[2,3-d]pyrimidin-4-amine]	> 7.8 µM
Cc1cc2c(NCCCc3ccccc3)nc(CN(C)C)nc2s1 [Example 109, 2-((dimethylamino)methyl)-6-methyl-N-(3-phenylpropyl)thieno [2,3-d]pyrimidin-4-amine]	> 10 µM
Cc1cc2c(NCCCc3ccccc3)nc(-c3ccon3)nc2s1 [Example 110, 2-(isoxazol-3-yl)-6-methyl-N-(3-phenylpropyl)thieno [2,3-d]pyrimidin-4-amine]	0.055 µM
Cc1cc(-c2nc(NCCCc3ccccc3)c3cc(C)sc3n2)no1 [Example 111, 6-methyl-2-(5-methylisoxazol-3-yl)-N-(3-phenylpropyl)thieno [2,3-d]pyrimidin-4-amin]	0.21 µM
Cc1cc2c(NCCCc3ccccc3)nc(-c3cc[nH]n3)nc2s1 [Example 112, 6-methyl-N-(3-phenylpropyl)-2-(1H-pyrazol-3-yl)thieno[2,3-d]pyrimidin-4-amine]	2.8 µM
Cc1cc2c(NCCCc3ccccc3)nc(-c3ccco3)nc2s1 [Example 113]	0.8 µM
Cc1cc2c(N[C@@H]3C[C@H]3c3ccc(F)c(F)c3)nc(-c3ccoc3)nc2s1 [Example 114, N-((1R,2S)-2-(3,4-difluorophenyl)cyclopropyl)-2-(furan-3-yl)-6-methylthieno[2,3-d]pyrimidin-4-amine]	0.62 µM
Cc1cc2c(N[C@@H]3C[C@H]3c3ccc(F)c(F)c3)nc(C3CCC3)nc2s1 [Example 115, 2-cyclobutyl-N-((1R,2S)-2-(3,4-difluorophenyl)cyclopropyl)-6-methylthieno[2,3-d]pyrimidin-4-amine]	0.64 µM
COC(C)(C)c1nc(NCCCc2ccccc2)c2cc(C)sc2n1 [Example 116, 2-(2-methoxypropan-2-yl)-6-methyl-N-(3-phenylpropyl)thieno [2,3-d]pyrimidin-4-amine]	> 10 µM
COC(=O)c1nc(NCCCc2ccc(OC(F)(F)F)cc2)c2cc(C)sc2n1 [Example 117, methyl 6-methyl-4-((3-(4-(trifluoromethoxy)phenyl)propyl)amino) thieno[2,3-d]pyrimidine-2-carboxylate]	> 7.7 µM
COc1ccc(CCCNc2nc(-c3ccoc3)nc3sc(C)cc23)cc1 [Example 118, 2-(furan-3-yl)-N-(3-(4-methoxyphenyl)propyl)-6-methylthieno[2,3-d]pyrimidin-4-amine]	0.082 µM
Cc1cc2c(NCCCc3ccccc3)nc(-c3cnsc3)nc2s1 [Example 119, 2-(isothiazol-4-yl)-6-methyl-N-(3-phenylpropyl)thieno [2,3-d]pyrimidin-4-amine]	0.56 µM
